System: human myeloma cell line MM.1S
Experiment: SILAC acetylated-lysine peptide profiling, HDAC inhibitor vs DMSO (light/heavy ratio)
Type: cell-based
Description: An embodiment of the invention comprises utilizing the SILAC method in order to quantitate changes in protein expression between two or more populations of cells. The SILAC method is a technique based on mass spectrometry that detects differences in protein abundance among samples using non-radioactive isotopic labeling. The SILAC method is known in the art, and described in detail in Ong et al., “Stable Isotope Labeling by Amino Acids in Cell Culture, SILAC, as a Simple and Accurate Approach to Expression Proteomics”, Molecular & Cellular Proteomics, vol. 1, pp. 376-386 (2002), which is incorporated herein by reference in its entirety.
Briefly, the SILAC method involves growing two populations of cells in cell culture. The first population of cells is grown in growth media containing normal amino acids (“normal media”). The second population of cells is grown in media lacking a standard essential amino acid (such as lysine), but is then supplemented with a non-radioactive, isotopically labeled form of that essential amino acid (such as lysine labeled with ^13C atoms, rather than normal ^12C atoms), which is called “heavy media”. When the two populations of cells are each growing in the medium, they incorporate the amino acids into all of their proteins. The growth of cells maintained in the heavy media is no different from that in normal media. All peptides containing the heavy amino acids are heavier than their normal counterparts. The cells from each of the two populations of cells are lysed. The lysates from each of the two cell populations are then combined. The combined cell lysates are then analyzed by mass spectrometry. Pairs of chemically identical peptides of different stable isotope composition can be differentiated in a mass spectrometer due to their difference in mass. The ratio of peak intensities in the mass spectrum for such peptide pairs reflects the abundance ratio for the two proteins.
This example describes SILAC studies that were performed to compare the effects of three different HDAC inhibitors (Compound A, Compound B, and tubastatin A) to a control on a human multiple myeloma cell line. The HDAC inhibitors were also compared amongst themselves to determine differences in their effects.
A human myeloma cell line MM.1S was grown using either ^12C (light) or ^13C (heavy) lysine containing culture medium. The “heavy” cells were treated with DMSO as the control, and the “light” cells were treated with a single HDAC inhibitor at 37° C. for 6 hours. The heavy and light cells were lysed, and the lysates were mixed in 1:1 ratio and digested with the protease trypsin. The acetylated lysine containing peptides (due to the action of the HDAC inhibitor) in the digested peptide pool were captured by a non-specific anti-acetylated lysine antibody cocktail (the antibodies identify both light and heavy acetylated peptides), and subjected to mass spectrometry analysis in order to identify thousands of individual peptides.
Thousands of peptides were identified in pairs (^12C and ^13C) due to their known mass differences. The amino acid sequence and quantitative ratio (Light/Heavy) of a given peptide in two differentially treated cell lysates were then determined and annotated with their possible protein (gene) sources.
As stated above, three HDAC inhibitors (Compound A, Compound B, and Tubastatin A) were used. Thus, the SILAC method was performed three times, with a different HDAC inhibitor compared to a control each time. Accordingly, there are three pairs of quantitative data in the table below, i.e., Compound A:DMSO, Compound B:DMSO, and Tubastatin A:DMSO. A cut-off of 1.30 fold of change (increase or decrease) was then used to determine “changed” or “+” in the table, and any peptides with a fold of change less than 1.3 fold were determined to be “unchanged” or “0” in the table. Those peptides that were not identified were marked as “NA” in the table. […]

O=C(CCCCCCNC(=O)c1cnc(N(c2ccccc2)c2ccccc2)nc1)NO [Compound A, 2-(diphenylamino)-N-(7-(hydroxyamino)-7-oxoheptyl)pyrimidine-5-carboxamide]
light to heavy ratio (L/H ratio) of acetylated peptide FVVEK(ac)AEQQK (SEQ ID NO: 263) (Prohibitin [202], PHB, drug:DMSO): 0.42 log 2
light to heavy ratio (L/H ratio) of acetylated peptide VYVLK(ac)FK (SEQ ID NO: 520) (Proteasomal ubiquitin receptor ADRM1 [97], gene ADRM1, inhibitor:DMSO): −0.50 log 2
light to heavy ratio (L/H ratio) of acetylated peptide FEYK(ac)YSFK (SEQ ID NO: 340) (Protein ERGIC-53 [49], LMAN1, drug:DMSO): 0.00 log 2
light to heavy ratio (L/H ratio) of acetylated peptide HFAFK(ac)[…] (SEQ ID NO: 554) (Protein FAM3C [72], gene FAM3C, inhibitor:DMSO): 0.40 log 2
light to heavy ratio (L/H ratio), log 2 scale, acetylated peptide […](ac)PTK (SEQ ID NO: 804) (Protein Jade-3 [735], gene PHF16, drug:DMSO): 1.00
light to heavy ratio (L/H ratio), log 2 scale, acetylated peptide IANILK(ac)[…] (SEQ ID NO: 803) (Protein disulfide-isomerase A4 [109], gene PDIA4, drug:DMSO): 1.00
light to heavy ratio (L/H ratio) of acetylated peptide GYPTIK(ac)FFR (SEQ ID NO: 541) (Protein disulfide-isomerase [103], gene P4HB, inhibitor:DMSO): 0.39 log 2
light to heavy ratio (L/H ratio) of acetylated peptide THILLFLPK(ac)SVSDYDGK (SEQ ID NO: 297) (Protein disulfide-isomerase [263], P4HB, drug:DMSO): 0.75 log 2
light to heavy ratio (L/H ratio) of acetylated peptide VLVGK(ac)[…] (SEQ ID NO: 303) (Protein disulfide-isomerase [375], P4HB, drug:DMSO): 0.99 log 2
light to heavy ratio (L/H ratio) of acetylated peptide […](ac)K (SEQ ID NO: 286) (Protein disulfide-isomerase [385], P4HB, drug:DMSO): 0.62 log 2
light to heavy ratio (L/H ratio), log 2 scale, acetylated peptide VYK(ac)EMYK (SEQ ID NO: 777) (Putative annexin A2-like protein [148], gene ANXA2P2, drug:DMSO): 1.00
light to heavy ratio (L/H ratio), log 2 scale, acetylated peptide SVPHLQK(ac)VFDR (SEQ ID NO: 776) (Putative annexin A2-like protein [227], gene ANXA2P2, drug:DMSO): 1.00
light to heavy ratio (L/H ratio) of acetylated peptide SEVDMLK(ac)IR (SEQ ID NO: 295) (Putative annexin A2-like protein [302], ANXA2P2, drug:DMSO): 0.71 log 2
light to heavy ratio (L/H ratio) of acetylated peptide RMELK(ac)ADQLYK (SEQ ID NO: 275) (Pyruvate dehydrogenase E1 component subunit alpha testis-specific form mitochondrial [75], PDHA2, drug:DMSO): 0.51 log 2
L/H ratio of acetylated peptide EIDSVK(ac)[…] (SEQ ID NO: 73) (RAC2 [153], log 2 scale, drug vs DMSO): 0.00
L/H ratio of acetylated peptide (ac)ADK(ac)[…] (SEQ ID NO: 74) (RBBP4 [4], log 2 scale, drug vs DMSO): 0.00
L/H ratio of acetylated peptide ACFYNLDK(ac)FR (SEQ ID NO: 75) (RBM17 [391], log 2 scale, drug vs DMSO): 0.00
L/H ratio of acetylated peptide […](ac)SIPTLISR (SEQ ID NO: 76) (RCC1 [366], log 2 scale, drug vs DMSO): 0.00
L/H ratio of acetylated peptide FIDTTSK(ac)FGHGR (SEQ ID NO: 83) (RPL3L [373], log 2 scale, drug vs DMSO): 0.00
L/H ratio of acetylated peptide LNILK(ac)LAPGGHVGR (SEQ ID NO: 85) (RPL4 [239], log 2 scale, drug vs DMSO): 0.00
L/H ratio of acetylated peptide AASLK(ac)SNYNLPMHK (SEQ ID NO: 84) (RPL4 [274], log 2 scale, drug vs DMSO): 0.00
L/H ratio of acetylated peptide NFLGEK(ac)YIR (SEQ ID NO: 86) (RPL9 [121], log 2 scale, drug vs DMSO): 0.00
L/H ratio of acetylated peptide TGCIGAK(ac)HR (SEQ ID NO: 77) (RPL11 [154], log 2 scale, drug vs DMSO): 0.00
L/H ratio of acetylated peptide WFQQK(ac)YDGIILPGK (SEQ ID NO: 78) (RPL11 [169], log 2 scale, drug vs DMSO): 0.00
L/H ratio of acetylated peptide […](ac)SR (SEQ ID NO: 79) (RPL18A [41], log 2 scale, drug vs DMSO): 0.00
L/H ratio of acetylated peptide IEHIK(ac)HSK (SEQ ID NO: 80) (RPL21, SNORD102, SNORA27, RPL21P19 [97], log 2 scale, drug vs DMSO): 0.00
L/H ratio of acetylated peptide YLK(ac)YLTK (SEQ ID NO: 81) (RPL22 [84], log 2 scale, drug vs DMSO): 0.00
L/H ratio of acetylated peptide INFDK(ac)YHPGYFGK (SEQ ID NO: 82) (RPL27A [47], log 2 scale, drug vs DMSO): 0.00
L/H ratio of acetylated peptide (RPPQTIK(ac)SVR (SEQ ID NO: 492), GDP-D-glucose phosphorylase C15orf58 [113], C15orf58): −1.00 log 2
L/H ratio of acetylated peptide LK(ac)[…] (SEQ ID NO: 89) (RPS4X [53], log 2 scale, drug vs DMSO): 0.00
L/H ratio of acetylated peptide SFQK(ac)IQVR (SEQ ID NO: 90) (RPS7 [74], log 2 scale, drug vs DMSO): 0.00
L/H ratio of acetylated peptide ELLTLDEK(ac)DPR (SEQ ID NO: 91) (RPS9 [66], log 2 scale, drug vs DMSO): 0.00
L/H ratio of acetylated peptide LQTQVFK(ac)LGLAK (SEQ ID NO: 92) (RPS9 [116], log 2 scale, drug vs DMSO): 0.00
L/H ratio of acetylated peptide […](ac)GK (SEQ ID NO: 87) (RPS23 [135], log 2 scale, drug vs DMSO): 0.00
L/H ratio of acetylated peptide LAVLK(ac)YYK (SEQ ID NO: 88) (RPS27A [104], log 2 scale, drug vs DMSO): 0.00
light to heavy ratio (L/H ratio) of acetylated peptide LLNK(ac)HGIK (SEQ ID NO: 528) (Ribosomal L1 domain-containing protein 1 [120], gene RSL1D1, inhibitor:DMSO): −0.43 log 2
